In patent US20200157092A1, “[1,2,4]-TRIAZOLO [1,5-A]-PYRIMIDINYL DERIVATIVES SUBSTITUTED WITH PIPERIDINE, […] […] OGA INHIBITORS” (priority 2017, published 2020):
pEC50: −log10 of the molar value. Where two headings read alike, the source gives them in different places.

Columns and labels:
[1] = target: T1, recombinant human Meningioma Expressed Antigen 5 (MGEA5), also referred to as O-GlcNAcase (OGA) (Homo sapiens, UniProt O60502); test: OGA biochemical assay: inhibition of FM-GlcNAc hydrolysis, fluorescence; protocol A (10 nM OGA, 1 h) or protocol B (2 nM OGA, 6 h); settings: for IC50: read-out: Enzymatic hOGA, pIC50 (converted)
T1 construct: Full length OGA enzyme was purchased at OriGene (cat # TP322411); purchased OriGene TP322411
T1 sequence (O60502 1-916): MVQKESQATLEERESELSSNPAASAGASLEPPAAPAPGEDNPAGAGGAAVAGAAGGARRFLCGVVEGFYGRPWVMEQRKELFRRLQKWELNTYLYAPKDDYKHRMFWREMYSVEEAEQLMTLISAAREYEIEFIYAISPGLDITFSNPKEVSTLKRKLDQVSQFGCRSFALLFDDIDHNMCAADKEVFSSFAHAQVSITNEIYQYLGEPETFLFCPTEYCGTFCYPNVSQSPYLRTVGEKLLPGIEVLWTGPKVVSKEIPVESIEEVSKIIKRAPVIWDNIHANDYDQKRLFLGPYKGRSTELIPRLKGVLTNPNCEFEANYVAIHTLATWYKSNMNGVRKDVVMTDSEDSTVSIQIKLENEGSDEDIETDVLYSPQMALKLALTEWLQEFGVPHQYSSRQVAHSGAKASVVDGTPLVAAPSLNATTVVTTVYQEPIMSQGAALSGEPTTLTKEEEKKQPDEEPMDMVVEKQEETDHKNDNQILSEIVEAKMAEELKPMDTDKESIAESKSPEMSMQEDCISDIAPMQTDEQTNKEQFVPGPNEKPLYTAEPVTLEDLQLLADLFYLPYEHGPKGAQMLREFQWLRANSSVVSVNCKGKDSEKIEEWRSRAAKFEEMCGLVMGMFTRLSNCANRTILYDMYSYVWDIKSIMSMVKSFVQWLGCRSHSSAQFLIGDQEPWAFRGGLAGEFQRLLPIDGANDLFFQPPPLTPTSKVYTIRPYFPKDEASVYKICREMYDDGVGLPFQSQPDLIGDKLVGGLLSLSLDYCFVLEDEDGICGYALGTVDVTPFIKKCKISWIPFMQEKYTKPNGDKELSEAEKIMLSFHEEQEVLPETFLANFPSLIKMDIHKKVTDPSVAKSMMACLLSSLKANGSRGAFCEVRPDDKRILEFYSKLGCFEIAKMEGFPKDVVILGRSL
Protocol: The hydrolysis FM-GlcNAc (Marker Gene technologies, cat # M1485) results in the formation of ß-D-N-glucosamineacetate and fluorescein. The fluorescence of the latter can be measured at excitation wavelength 485 nm and emission wavelength 538 nm. An increase in enzyme activity results in an increase in fluorescence signal. Full length OGA enzyme was purchased at OriGene (cat # TP322411). The enzyme was stored in 25 mM Tris.HCl, pH 7.3, 100 mM glycine, 10% glycerol at −20° C. […] The assay was performed in 200 mM Citrate/phosphate buffer supplemented with 0.005% Tween-20. 35.6 g Na2HPO4 2 H2O (Sigma, # C0759) were dissolved in 1 L water to obtain a 200 mM solution. […] The buffer to stop the reaction consists of a 500 mM Carbonate buffer, pH 11.0. […] OGA was used at a 10 nM (protocol A) or 2 nM (protocol B) concentration and FM-GlcNAc at a 100 uM final concentration. Dilutions were prepared in assay buffer.
Plates were pre-incubated for 60 min at room temperature and then 2 μl FM-GlcNAc substrate mix added. […] Plates were briefly centrifuged for 1 min at 1000 rpm and incubate at room temperature for 1 h (10 nM OGA, protocol A) or 6 h (2 nM OGA, protocol B). To stop the reaction 5 μl STOP buffer were added and plates centrifuge again 1 min at 1000 rpm. Fluorescence was quantified in the Thermo Scientific Fluoroskan Ascent or the PerkinElmer EnVision with excitation wavelength 485 nm and emission wavelength 538 nm.
For analysis a best-fit curve is fitted by a minimum sum of squares method. From this an IC50 value and Hill coefficient was obtained. High control (no inhibitor) and low control (saturating concentrations of standard inhibitor) were used to define the minimum and maximum values.

[2] = target: T2, OGA (Homo sapiens, UniProt O60502); test: OGA cellular assay: immunocytochemical detection of O-GlcNAcylated proteins in HEK293 cells inducible for P301L mutant human Tau; assay type: cell-based; settings: for Emax: HEK293, read-out: Cellular Emax (%)
T2 construct: HEK293 cells inducible for P301L mutant human Tau (isoform 2N4R) were established at Janssen; endogenous in cells; host or cells: HEK293 cells inducible for P301L mutant human Tau (2N4R)
T2 sequence (O60502 1-916): T1 sequence (O60502 1-916)
Description: HEK293 cells inducible for P301L mutant human Tau (isoform 2N4R) were established at Janssen. Thiamet-G was used for both plate validation (high control) and as reference compound (reference EC50 assay validation). […] Inhibition of OGA will result in an increase of O-GlcNAcylated protein levels resulting in an increased signal in the experiment. […] ICC pictures are imaged with a Perkin Elmer Opera Phenix plate microscope and quantified with the provided software Perkin Elmer Harmony 4.1.
Cells were propagated in DMEM high Glucose (Sigma, # D5796) following standard procedures. […] At the day of compound test medium from assay plates was removed and replenished with 90 μl of fresh Assay Medium. 10 μl of compounds at a 10 fold final concentration were added to the wells. Plates were centrifuged shortly before incubation in the cell incubator for 6 hours. DMSO concentration was set to 0.2%. Medium is discarded by applying vacuum. For staining of cells medium was removed and cells washed once with 100 μl D-PBS (Sigma, # D8537). From next step onwards unless other stated assay volume was always 50 μl and incubation was performed without agitation and at room temperature. […] Before analysis samples were washed 2 times manually for 5 minutes in ICC base buffer.
Imaging is performed using Perkin Elmer Phenix Opera using a water 20× objective and recording 9 fields per well. Intensity readout at 488 nm is used as a measure of O-GlcNAcylation level of total proteins in wells. To assess potential toxicity of compounds nuclei were counted using the Hoechst staining. IC50-values are calculated using parametric non-linear regression model fitting. As a maximum inhibition Thiamet G at a 200 uM concentration is present on each plate. In addition, a concentration response of Thiamet G is calculated on each plate.

[3] = Enzymatic protocol A (10 nM OGA, 1 h)
[4] = Enzymatic protocol B (2 nM OGA, 6 h)

Structure (SMILES)	Emax [1, 3] [%]	IC50 [1, 3] [nM]	melting point [°C]	pEC50 [2]	Emax [2] [%]	Emax [1, 4] [%]	IC50 [1, 4] [nM]
CC(=O)Nc1ncc(S(=O)(=O)N2CCCC(c3cc(C(F)F)nc4ncnn34)C2)s1 (racemic) [Product 6]	101	9.33	266.14	< 5.00	39.4		
CC(=O)Nc1ncc(CN2CCCC(c3cc(C)nc4ncnn34)C2)s1 (racemic) [Product 11]			246.95	7.56	113	100	6.17
CC(=O)Nc1ncc(CN2CCCC(c3cc(C(F)F)nc4ncnn34)C2)s1 (racemic) [Product 13]	101	8.51	186.01	7.45	130		
CC(=O)Nc1ncc(CN2CCCC(c3cc(C(F)F)n4ccnc4n3)C2)s1 (racemic) [Product 24]	102	31.6	232.44	6.32	109		
CC(=O)Nc1ncc(S(=O)(=O)N2CCOC(c3cc(C)nc4ncnn34)C2)s1 (racemic) [Product 28]	103	9.12	290.78	< 5.00	22	101	8.51
CC(=O)Nc1ncc(CN2CCCC(c3cc4cc[nH]c4nc3C)C2)s1 (racemic) [Product 74]	101	6.31	276.23	7.87	102		
CC(=O)Nc1ncc(CN2CCC[C@H](c3ccnc4ncnn34)C2)s1 [Product 9]	101	11.7	234.6	7.41	109		
CC(=O)Nc1ncc(CN2CCCC(c3cc(C(F)F)nc4nccn34)C2)s1 (stereo not drawn) [Product 14]	102	8.71	226.06	7.15	108		
CC(=O)Nc1ncc(CN2CCC[C@@H](c3cc(C(F)F)n4ncnc4n3)C2)s1 [Product 25]	103	13.5	182.53	6.34	113		
CC(=O)Nc1ncc(S(=O)(=O)N2CCOC(c3cc(C(F)(F)F)nc4ncnn34)C2)s1 (stereo not drawn) [Product 27]	100	17	255.12	< 5.00	19.5		
CC(=O)Nc1ncc(S(=O)(=O)N2CCO[C@@H](c3ccnc4ncnn34)C2)s1 [Product 31]	103	15.8	263.16	< 5.00	11.1		
CC(=O)Nc1ncc(S(=O)(=O)N2CCO[C@H](c3ccnc4ncnn34)C2)s1 [Product 32]	102	14.5	260.51	< 5.00	21.8		
CC(=O)Nc1ncc(S(=O)(=O)N2CCOC(c3cc(C(F)F)nc4ncnn34)C2)s1 (stereo not drawn) [Product 33]	101	6.46	264.85	< 5.00	15.7		
CC(=O)Nc1ncc(S(=O)(=O)N2CCNC(c3cc(C(F)F)nc4ncnn34)C2)s1 (stereo not drawn) [Product 41]	102	6.17	227.97	< 5.00	10.5		
CC(=O)Nc1ncc(S(=O)(=O)N2CCNC(c3cc(C(F)F)n4ncnc4n3)C2)s1 (stereo not drawn) [Product 43]	93.1	1860	226.22				
CC(=O)Nc1ncc(CN2CCCC(Nc3cc(C)nc4ncnn34)C2)s1 (stereo not drawn) [Product 51]			249.94			98.5	115
Cc1cc([C@H]2CN([C@H](C)c3ccc4c(c3)OCO4)CCN2)n2ncnc2n1 [Product 56]			199.25			25.8	> 10000
Cc1cc([C@H]2CN([C@@H](C)c3ccc4c(c3)OCO4)CCN2)n2ncnc2n1 [Product 57]			161.31			93	617
Cc1cc(C2CN(CC(=O)N3CCCC3)CCO2)n2ncnc2n1 (stereo not drawn) [Product 59]			127.35			-1.34	> 10000
CC(=O)Nc1ncc(S(=O)(=O)N2CCCC(C)(c3cc(C(F)F)nc4ncnn34)C2)s1 (stereo not drawn) [Product 60]	98.7	1860	238.12				
CC(=O)Nc1ncc(CN2CCCC(C)(c3cc(C(F)F)n4ncnc4n3)C2)s1 (stereo not drawn) [Product 62]			217.24			16.2	> 10000
CC(=O)Nc1ncc(S(=O)(=O)N2CCC3(CC3)C(c3cc(C(F)F)nc4ncnn34)C2)s1 (stereo not drawn) [Product 63]	93.8	692	266.56				
CC(=O)Nc1ncc(CN2CCC[C@@H](c3ccnc4ncnn34)C2)s1 [Product 65]			236.16			99.2	123
CC(=O)Nc1ncc(CN2CCC(Cc3cnc4cc[nH]c4c3)C2)s1 (stereo not drawn) [Product 68]			190.79	7.38	91.2	101	5.37
CC(=O)Nc1ncc(CN2CC[C@H](Cc3nccn4c(C)cnc34)C2)s1 [Product 104]			189.54	7.21	91.5	100	1.48
CC(=O)Nc1ncc(CN2CC[C@H](Cc3cncc4nccn34)C2)s1 [Product 108]			202.48	7.01	92.7	101	4.9
